Measured values as given in patent US10683273B2, “Compounds as DNA probes, methods and applications thereof” (JAWAHARLAL NEHRU CENTRE FOR ADVANCED SCIENTIFIC RESEARCH, priority 2015, dated 2020).
Like-named read-outs stand apart in the source and are kept apart here.

How the values were obtained:
[1] = system: DM4 (5′-AATT-3′); assay: Sequence-specific fluorescence enhancement, variable (A/T)4 core; assay type: binding; conditions: QCy-DT 2 μM, DM4 4 μM
Description: (§1) All the chemicals, reagents, single-stranded oligos (dA20, dT20, dG20, dC20), self-complementary oligos {d(ATAT)5, (D1)mix, Drew-AT, Calf-Thymus DNA (CT-DNA), (DM1, DM2, DM3, DM4, DM5, DM6 and DM7)}, RNA, were purchased from Sigma-Aldrich. ^1H and ^13C NMR spectra were recorded on a Bruker AV-400 MHz spectrometer with chemical shifts reported as parts per million (ppm) (in DMSO-d6, tetramethylsilane as an internal standard) at 20° C. UV-vis absorption and emission spectra were measured in quartz cuvettes of 1 cm path length. High resolution mass spectra (HRMS) were obtained on Agilent Technologies 6538 UHD Accurate-Mass Q-TOF LC/MS spectrometer. All biophysical studies (UV-vis, fluorescence and Cirular dichroism) are carried out at the concentration 0-5 μM of probe, volume=500 μL, temperature=25° C. and time of incubation=2 minutes. HeLa cells and MCF7 cells used in the biological studies are obtained from “Molecular reproduction, development and genetics lab, Indian institute of science, Bangalore, India”
(§2) Stock solutions of QCy-DT are prepared in double-distilled (dd) water in the order of 10^−3 M and stored at about −10° C. DNA stock solutions are prepared by dissolving oligo samples in double-distilled (dd) water in the order of 10^−4 M. Solutions of DNA duplexes are prepared in Tris-HCl (100 mM, pH=7.4) buffer solution by mixing complementary DNA strands in equimolar concentration. This solution is then subjected to annealing by heating up to about 85° C. for about 15 minutes, subsequently cooled to room temperature for about 7 hours and stored in the refrigerator (about 4° C.) for about 4 hours.
(§3) The UV-vis absorption and emission spectra are recorded on Agilent Technologies Cary series UV-vis-NIR absorbance and Cary eclipse fluorescence spectrophotometers, respectively. Thermal denaturation (UV-melting) studies are carried out on Cary 5000 UV-vis-NIR spectrophotometer equipped with Cary temperature controller in the range of 10° C. to 90° C. with a ramp rate of 1° C./min. The variable temperature/wavelength mode is used. Absorption is monitored at 260 nm with regular 5° C. intervals. Melting temperatures (Tm) of DNA samples are calculated from the first derivatives of the absorption vs. temperature curves (thermal denaturation or melting curves) obtained by monitoring at 260 nm.
(§4) Almost about ˜4-folds difference in fluorescence enhancement of QCy-DT in the presence of (A-T)20 compared to self-complementary, alternative AT-base pair containing d(ATAT)5 duplex is observed, although both contain total 20 AT base pairs (FIG. 3 and FIG. 12a). […] There are no NIR-fluorescence probes that sequence-specifically recognize the minor groove of AT-rich DNA. […] Further, QCy-DT detects all AT-rich sequences by showing varied fluorescence/sensitivity. […]

[2] = system: DM1 (5′-ATAT-3′); assay: as above; assay type: binding; conditions: QCy-DT 2 μM, DM1 4 μM
Description: as §1, §2, §3, §4

[3] = system: DM2 (5′-ATTA-3′); assay: as above; assay type: binding; conditions: QCy-DT 2 μM, DM2 4 μM
Description: as §1, §2, §3, §4

[4] = system: DM3 (5′-AAAA-3′); assay: as above; assay type: binding; conditions: QCy-DT 2 μM, DM3 4 μM
Description: as §1, §2, §3, §4

[5] = system: P. falciparum; assay: IC50 determination in malaria parasites; assay type: cell-based, Plasmodium falciparum; conditions: for IC50: Plasmodium falciparum
Description: P. falciparum strain 3D7 is cultured. Briefly, malaria parasites are cultured in human erythrocytes in T75 flasks with RPMI 1640 (Gibco) supplemented with 10 μg/mL gentamicin (Sigma), 50 μg/mL ampicillin, 0.2% NaHCO3 (Sigma), 0.5% albumax (Invitrogen) and Hypoxanthine (27 mg/L). The culture is maintained under standard conditions (37° C. in 90% nitrogen, 5% CO2, and 5% O2). For synchronization of the parasites, ring-staged parasites are treated with 5% sorbitol at 37° C. for about 5-10 min, followed by washing with pre-warmed incomplete medium twice, and placed back in complete medium. QCy-DT probe (resuspended in Mili-Q water) is added to parasites (25±2 hpi) at a final concentration of 0.5 μM and the parasites are incubated for 30 min at 37° C. Following treatment fluorescence imaging of the parasites is performed using Carl Zeiss AXIO Imager Z1 and the software used for image capturing was AxioVision Rel. 4.8. To determine the IC50 value of QCy-DT against P. falciparum, parasites are synchronized in ring stage (˜12±2 h) and parasitemia is maintained at ˜1%, followed by treatment with 0, 0.5, 1, 2 and 4 μM of QCy-DT at early trophozoite stage (˜20±2 h). After about 40 hours of the QCy-DT treatment, Geimsa stained slides are prepared, and parasitemia is counted. At least six homogenous microscopic fields are counted for each treatment, and each experiment is done in triplicates. The graphs are plotted for the percentage of parasitemia (at 0 time point and at 40 hours after incubation with QCy-DT) against QCy-DT concentration, with mean and standard error.

[6] = system: (D1)mix; assay: Binding constant from fluorescence titration; conditions: non-linear single-binding mode curve fitting
Description: (§5) To determine the binding stoichiometry of QCy-DT with Drew-AT, continuous variation method is employed, varying the ligand concentrations to generate the Job plot by fixing the total concentration of [QCy-DT+Drew-AT] at 2 μM. […] The binding constants of [QCy-DT+DNA] complexes are calculated from the fluorescence titration experiments using non-linear (single-binding mode) curve fitting analysis. […] Next, the fluorescence quantum yield of QCy-DT is estimated in the presence of AT- and GC-rich DNA duplexes (Table 3) as follows: […]

[7] = system: Drew-AT; assay: Binding constant from fluorescence titration; conditions: non-linear single-binding mode curve fitting
Description: as §5

[8] = system: (A-T)20; assay: Binding constant from fluorescence titration
Description: as §5

C[n+]1c(/C=C/c2ccc(O)c(/C=C/c3sc4ccccc4[n+]3C)c2)sc2ccccc21 [QCy-DT, quinone cyanine-dithiazole]
fluorescence enhancement [1]: ~72 fold | fluorescence enhancement [2]: ~8 fold | fluorescence enhancement [3]: ~15 fold | fluorescence enhancement [4]: ~40 fold | parasite stage progression ([5]; 8 μM): arrested in the trophozoite stage | IC50 ([5]; against malarial parasites, as printed in the description, read-out: inhibitory concentration (IC50)): < 4 µM | IC50 ([5]; early trophozoite stage, 40 h treatment, parasitemia count, read-out: IC50): < 4 µM | binding affinity Ka [6]: 430000 M⁻¹ | binding affinity Ka [7]: 1.5e+06 M⁻¹ | binding affinity Ka ([8]; non-linear single-binding mode curve fitting): 2.9e+06 M⁻¹ | binding affinity for (A-T)20 higher than for Drew-AT ([8]; ratio of Ka): 2 fold
